Source: ChEMBL document CHEMBL3132823, “Novel radioiodinated 1,3,4-oxadiazole derivatives with improved in vivo properties for SPECT imaging of -amyloid plaques” (Medchemcomm, 2014)
One block for each molecule: values may come before it. Active and inactive are the calls of the source. The rule behind the calls is not given here.

Key:
Brain [1] = experiment: Biodistribution in iv dosed ddY mouse brain measured per gram of tissue after 60 mins by automatic gamma counting; type: ADME, organism-based; settings: in vivo, 1 h
Stomach [2] = experiment: Biodistribution in iv dosed ddY mouse stomach measured per organ after 60 mins by automatic gamma counting; type: ADME, organism-based; settings: in vivo, 1 h
Heart [3] = experiment: Biodistribution in iv dosed ddY mouse heart measured per gram of tissue after 60 mins by automatic gamma counting; type: ADME, organism-based; settings: in vivo, 1 h
Pancreas [4] = experiment: Biodistribution in iv dosed ddY mouse pancreas measured per gram of tissue after 60 mins by automatic gamma counting; type: ADME, organism-based; settings: in vivo, 1 h
Blood [5] = experiment: Biodistribution in iv dosed ddY mouse blood measured per gram of tissue after 2 mins by automatic gamma counting; type: ADME, organism-based; settings: in vivo
Liver [6] = experiment: Biodistribution in iv dosed ddY mouse liver measured per gram of tissue after 2 mins by automatic gamma counting; type: ADME, organism-based; settings: in vivo
Kidney [7] = experiment: Biodistribution in iv dosed ddY mouse kidney measured per gram of tissue after 2 mins by automatic gamma counting; type: ADME, organism-based; settings: in vivo
Intestine [8] = experiment: Biodistribution in iv dosed ddY mouse intestine measured per gram of tissue after 2 mins by automatic gamma counting; type: ADME, organism-based; settings: in vivo
Spleen [9] = experiment: Biodistribution in iv dosed ddY mouse spleen measured per gram of tissue after 2 mins by automatic gamma counting; type: ADME, organism-based; settings: in vivo
Pancreas [10] = experiment: Biodistribution in iv dosed ddY mouse pancreas measured per gram of tissue after 2 mins by automatic gamma counting; type: ADME, organism-based; settings: in vivo
Heart [11] = experiment: Biodistribution in iv dosed ddY mouse heart measured per gram of tissue after 2 mins by automatic gamma counting; type: ADME, organism-based; settings: in vivo
Stomach [12] = experiment: Biodistribution in iv dosed ddY mouse stomach measured per organ after 2 mins by automatic gamma counting; type: ADME, organism-based; settings: in vivo
Brain [13] = experiment: Biodistribution in iv dosed ddY mouse brain measured per gram of tissue after 2 mins by automatic gamma counting; type: ADME, organism-based; settings: in vivo
Blood [14] = experiment: Biodistribution in iv dosed ddY mouse blood measured per gram of tissue after 10 mins by automatic gamma counting; type: ADME, organism-based; settings: in vivo
Liver [15] = experiment: Biodistribution in iv dosed ddY mouse liver measured per gram of tissue after 10 mins by automatic gamma counting; type: ADME, organism-based; settings: in vivo
Kidney [16] = experiment: Biodistribution in iv dosed ddY mouse kidney measured per gram of tissue after 10 mins by automatic gamma counting; type: ADME, organism-based; settings: in vivo
Intestine [17] = experiment: Biodistribution in iv dosed ddY mouse intestine measured per gram of tissue after 10 mins by automatic gamma counting; type: ADME, organism-based; settings: in vivo
Spleen [18] = experiment: Biodistribution in iv dosed ddY mouse spleen measured per gram of tissue after 10 mins by automatic gamma counting; type: ADME, organism-based; settings: in vivo
Pancreas [19] = experiment: Biodistribution in iv dosed ddY mouse pancreas measured per gram of tissue after 10 mins by automatic gamma counting; type: ADME, organism-based; settings: in vivo
Heart [20] = experiment: Biodistribution in iv dosed ddY mouse heart measured per gram of tissue after 10 mins by automatic gamma counting; type: ADME, organism-based; settings: in vivo
Stomach [21] = experiment: Biodistribution in iv dosed ddY mouse stomach measured per organ after 10 mins by automatic gamma counting; type: ADME, organism-based; settings: in vivo
Brain [22] = experiment: Biodistribution in iv dosed ddY mouse brain measured per gram of tissue after 10 mins by automatic gamma counting; type: ADME, organism-based; settings: in vivo
Blood [23] = experiment: Biodistribution in iv dosed ddY mouse blood measured per gram of tissue after 30 mins by automatic gamma counting; type: ADME, organism-based; settings: in vivo, 0.5 h
Liver [24] = experiment: Biodistribution in iv dosed ddY mouse liver measured per gram of tissue after 30 mins by automatic gamma counting; type: ADME, organism-based; settings: in vivo, 0.5 h
Kidney [25] = experiment: Biodistribution in iv dosed ddY mouse kidney measured per gram of tissue after 30 mins by automatic gamma counting; type: ADME, organism-based; settings: in vivo, 0.5 h
Intestine [26] = experiment: Biodistribution in iv dosed ddY mouse intestine measured per gram of tissue after 30 mins by automatic gamma counting; type: ADME, organism-based; settings: in vivo, 0.5 h
Spleen [27] = experiment: Biodistribution in iv dosed ddY mouse spleen measured per gram of tissue after 30 mins by automatic gamma counting; type: ADME, organism-based; settings: in vivo, 0.5 h
Pancreas [28] = experiment: Biodistribution in iv dosed ddY mouse pancreas measured per gram of tissue after 30 mins by automatic gamma counting; type: ADME, organism-based; settings: in vivo, 0.5 h
Heart [29] = experiment: Biodistribution in iv dosed ddY mouse heart measured per gram of tissue after 30 mins by automatic gamma counting; type: ADME, organism-based; settings: in vivo, 0.5 h
Stomach [30] = experiment: Biodistribution in iv dosed ddY mouse stomach measured per organ after 30 mins by automatic gamma counting; type: ADME, organism-based; settings: in vivo, 0.5 h
Brain [31] = experiment: Biodistribution in iv dosed ddY mouse brain measured per gram of tissue after 30 mins by automatic gamma counting; type: ADME, organism-based; settings: in vivo, 0.5 h
Blood [32] = experiment: Biodistribution in iv dosed ddY mouse blood measured per gram of tissue after 60 mins by automatic gamma counting; type: ADME, organism-based; settings: in vivo, 1 h
Liver [33] = experiment: Biodistribution in iv dosed ddY mouse liver measured per gram of tissue after 60 mins by automatic gamma counting; type: ADME, organism-based; settings: in vivo, 1 h
Kidney [34] = experiment: Biodistribution in iv dosed ddY mouse kidney measured per gram of tissue after 60 mins by automatic gamma counting; type: ADME, organism-based; settings: in vivo, 1 h
Intestine [35] = experiment: Biodistribution in iv dosed ddY mouse intestine measured per gram of tissue after 60 mins by automatic gamma counting; type: ADME, organism-based; settings: in vivo, 1 h
Spleen [36] = experiment: Biodistribution in iv dosed ddY mouse spleen measured per gram of tissue after 60 mins by automatic gamma counting; type: ADME, organism-based; settings: in vivo, 1 h
Plasma = experiment: Metabolic stability in mouse plasma at 11 kBq after 1 hr at 37 degC by HPLC analysis; type: ADME, cell-free
Mus musculus [37] = experiment: In vivo binding affinity to amyloid beta plaques in iv dosed wild type mouse brain at 44 to 48 MBq after 20 to 80 mins by SPECT study; type: functional, organism-based; settings: 44 to 48 M, tested as the 125I-labelled form
Mus musculus [38] = experiment: In vivo binding affinity to amyloid beta plaques in iv dosed Tg2576 transgenic mouse brain at 44 to 48 MBq after 20 to 80 mins by SPECT study; type: functional, organism-based; settings: 44 to 48 M, tested as the 125I-labelled form
Mus musculus [39] = experiment: In vivo binding affinity to amyloid beta plaques in iv dosed wild type mouse brain after 70 mins by autoradiography analysis; type: functional, organism-based; settings: tested as the 125I-labelled form
Mus musculus [40] = experiment: In vivo binding affinity to amyloid beta plaques in iv dosed Tg2576 transgenic mouse brain after 70 mins by autoradiography analysis; type: functional, organism-based; settings: tested as the 125I-labelled form
[41] = Octanol-phosphate buffer partition coefficient, log p of the compound at pH 7.4 by automatic gamma counting; type: physicochemical
[42] = target: T1, Amyloid-beta precursor protein (Homo sapiens, UniProt P05067); experiment: Inhibition of [125I]IMPY binding to amyloid beta (1 to 42) aggregates (unknown origin) by gamma counting
T1 sequence (P05067 whole entry): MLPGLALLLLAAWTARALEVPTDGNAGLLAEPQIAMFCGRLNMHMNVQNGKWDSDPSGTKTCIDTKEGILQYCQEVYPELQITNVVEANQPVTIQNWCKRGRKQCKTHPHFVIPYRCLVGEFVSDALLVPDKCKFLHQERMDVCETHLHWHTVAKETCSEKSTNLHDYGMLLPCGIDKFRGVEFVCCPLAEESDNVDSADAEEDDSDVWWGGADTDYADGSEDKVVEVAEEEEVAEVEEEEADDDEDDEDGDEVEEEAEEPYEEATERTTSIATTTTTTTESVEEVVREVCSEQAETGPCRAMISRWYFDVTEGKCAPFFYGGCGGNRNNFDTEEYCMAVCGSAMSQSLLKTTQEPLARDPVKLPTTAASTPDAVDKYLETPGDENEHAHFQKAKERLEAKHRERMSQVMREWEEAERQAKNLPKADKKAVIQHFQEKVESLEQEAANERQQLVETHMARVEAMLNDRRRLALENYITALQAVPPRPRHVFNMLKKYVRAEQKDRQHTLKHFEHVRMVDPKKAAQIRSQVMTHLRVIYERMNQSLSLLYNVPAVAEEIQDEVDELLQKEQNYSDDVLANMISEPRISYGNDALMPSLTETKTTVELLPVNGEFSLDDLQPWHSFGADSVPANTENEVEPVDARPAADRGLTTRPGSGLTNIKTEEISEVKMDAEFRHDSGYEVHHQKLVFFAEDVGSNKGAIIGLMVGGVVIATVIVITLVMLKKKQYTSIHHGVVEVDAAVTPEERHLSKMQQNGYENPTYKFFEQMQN

[43] = target: T1, Amyloid-beta precursor protein; experiment: In vitro binding affinity to amyloid beta plaques in human AD brain at 148 kBq after 1 hr incubation at room temperature by autoradiography analysis; settings: tested as the 125I-labelled form

Drug uptake (Brain [1]): 0.4 %ID | Drug uptake (Stomach [2]): 10.24 %ID | Drug uptake (Heart [3]): 1.13 %ID | Drug uptake (Pancreas [4]): 1.27 %ID | Drug uptake (Blood [5]): 1.93 %ID | Drug uptake (Liver [6]): 6.41 %ID | Drug uptake (Kidney [7]): 6.43 %ID | Drug uptake (Intestine [8]): 1.5 %ID | Drug uptake (Spleen [9]): 2.97 %ID | Drug uptake (Pancreas [10]): 4.92 %ID | Drug uptake (Heart [11]): 4.48 %ID | Drug uptake (Stomach [12]): 0.91 %ID | Drug uptake (Brain [13]): 3.88 %ID | Drug uptake (Blood [14]): 2.33 %ID | Drug uptake (Liver [15]): 7.44 %ID | Drug uptake (Kidney [16]): 4.61 %ID | Drug uptake (Intestine [17]): 3.38 %ID | Drug uptake (Spleen [18]): 3.01 %ID | Drug uptake (Pancreas [19]): 3.07 %ID | Drug uptake (Heart [20]): 2.15 %ID | Drug uptake (Stomach [21]): 2.49 %ID | Drug uptake (Brain [22]): 3.03 %ID | Drug uptake (Blood [23]): 1.97 %ID | Drug uptake (Liver [24]): 3.86 %ID | Drug uptake (Kidney [25]): 2.96 %ID | Drug uptake (Intestine [26]): 5.29 %ID | Drug uptake (Spleen [27]): 1.72 %ID | Drug uptake (Pancreas [28]): 1.67 %ID | Drug uptake (Heart [29]): 1.31 %ID | Drug uptake (Stomach [30]): 7.25 %ID | Drug uptake (Brain [31]): 1.05 %ID | Drug uptake (Blood [32]): 1.79 %ID | Drug uptake (Liver [33]): 2.61 %ID | Drug uptake (Kidney [34]): 2.99 %ID | Drug uptake (Intestine [35]): 8.57 %ID | Drug uptake (Spleen [36]): 1.74 %ID | Stability (Plasma): Stable
SMILES: CN(C)c1ccc(-c2nnc(-c3ccc([125I])cc3)o2)cn1

logD [41]: 2.06 | Ki [42]: 13.6 nM | inhibition [42]: Dose-dependent effect | Activity [43]: Active
SMILES: CN(C)c1ccc(-c2nnc(-c3cccc(I)c3)o2)cn1
Activity (Mus musculus [37]): inactive | Activity (Mus musculus [38]): Active | Activity (Mus musculus [39]): inactive | Activity (Mus musculus [40]): Active

Ki [42]: 3.91 nM
SMILES: CN(C)c1ccc(-c2nnc(-c3ccc(I)cc3)o2)cc1

logD [41]: 2.06 | Ki [42]: 24.8 nM | inhibition [42]: Dose-dependent effect | Activity [43]: Active
SMILES: CN(C)c1ccc(-c2nnc(-c3ccc(I)cc3)o2)cn1
Activity (Mus musculus [39]): inactive | Activity (Mus musculus [40]): Active

Drug uptake (Brain [1]): 0.48 %ID | Drug uptake (Stomach [2]): 7.9 %ID | Drug uptake (Heart [3]): 1.14 %ID | Drug uptake (Pancreas [4]): 1.28 %ID | Drug uptake (Blood [5]): 1.82 %ID | Drug uptake (Liver [6]): 6.06 %ID | Drug uptake (Kidney [7]): 8.85 %ID | Drug uptake (Intestine [8]): 2.28 %ID | Drug uptake (Spleen [9]): 2.67 %ID | Drug uptake (Pancreas [10]): 5.15 %ID | Drug uptake (Heart [11]): 5.76 %ID | Drug uptake (Stomach [12]): 0.86 %ID | Drug uptake (Brain [13]): 4.12 %ID | Drug uptake (Blood [14]): 1.65 %ID | Drug uptake (Liver [15]): 11.5 %ID | Drug uptake (Kidney [16]): 4.59 %ID | Drug uptake (Intestine [17]): 4.08 %ID | Drug uptake (Spleen [18]): 1.74 %ID | Drug uptake (Pancreas [19]): 2.46 %ID | Drug uptake (Heart [20]): 2.39 %ID | Drug uptake (Stomach [21]): 2.01 %ID | Drug uptake (Brain [22]): 2.63 %ID | Drug uptake (Blood [23]): 1.67 %ID | Drug uptake (Liver [24]): 8.42 %ID | Drug uptake (Kidney [25]): 2.95 %ID | Drug uptake (Intestine [26]): 8.77 %ID | Drug uptake (Spleen [27]): 1.39 %ID | Drug uptake (Pancreas [28]): 1.56 %ID | Drug uptake (Heart [29]): 1.27 %ID | Drug uptake (Stomach [30]): 5.67 %ID | Drug uptake (Brain [31]): 0.87 %ID | Drug uptake (Blood [32]): 1.76 %ID | Drug uptake (Liver [33]): 5.94 %ID | Drug uptake (Kidney [34]): 2.3 %ID | Drug uptake (Intestine [35]): 12.08 %ID | Drug uptake (Spleen [36]): 1.21 %ID | Stability (Plasma): Stable
SMILES: CN(C)c1ccc(-c2nnc(-c3cccc([125I])c3)o2)cn1
